Measurements taken from the supplement of paper PMC11451515.

Columns and labels:
Assay in all cases: AUC of viability dose-response curve (% viability x log10 dose units); higher = less sensitive
Conditions in all cases: 48 h
SEM cells = tested on: SEM cells
How it was run: (§1)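 Leukemia cells adapted to each medium (500 or 1000 cells/well, 1536-well plates) were exposed to library compounds in DMSO for 48 h at 37°C at 11 threefold doses, 47 μM to 0.79 nM. Luminescence by CellTiter-Glo One was normalised per plate to DMSO and cell-free wells, then fitted with a four-parameter log-logistic curve on log10 dose. Curves above full viability were scaled and quality-control failures removed before area under the curve was integrated by trapezoidal rule.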

P12-Ichikawa = tested on: P12-Ichikawa
How it was run: as §1

NOMO1 = tested on: NOMO1
How it was run: as §1

[1] = RPMI 5 mM glucose + 10% dialyzed FBS

Row | SMILES | AUC of viability dose-response curve (SEM cells; HPLM + 10% dialyzed FBS) | AUC of viability dose-response curve (SEM cells; RPMI 5 mM glucose + 10% FBS) | AUC of viability dose-response curve (SEM cells; [1]) | AUC of viability dose-response curve (P12-Ichikawa; HPLM + 10% dialyzed FBS) | AUC of viability dose-response curve (P12-Ichikawa; RPMI 5 mM glucose + 10% FBS) | AUC of viability dose-response curve (P12-Ichikawa; [1]) | AUC of viability dose-response curve (NOMO1; HPLM + 10% dialyzed FBS) | AUC of viability dose-response curve (NOMO1; RPMI 5 mM glucose + 10% FBS) | AUC of viability dose-response curve (NOMO1; [1])
1 | CCOC(=O)c1ncn2c1CN(C)C(=O)c1cc(F)ccc1-2 | 421 | 420 | 422 | 427 | 432 | 424 | 433 | 432 | 465
2 | Cc1cc(SCc2sc(-c3ccc(C(F)(F)F)c(F)c3)nc2C)ccc1OCC(=O)O | 461 | 432 | 446 | 466 | 449 | 439 | 458 | 439 | 467
3 | COc1cc2ncnc(Nc3ccc(F)c(Cl)c3)c2cc1OCCCN1CCOCC1 | 408 | 419 | 425 | 446 | 446 | 463 | 425 | 452 | 443
4 | COc1ccc(-c2nc3cc(C4=NNC(=O)CC4C)ccc3[nH]2)cc1 (stereo not drawn) | 467 | 462 | 465 | 473 | 465 | 470 | 445 | 459 | 461
5 | CC(C)(O)CNc1nc(Nc2ccnc(C(F)(F)F)c2)nc(-c2cccc(C(F)(F)F)n2)n1 | 408 | 363 | 382 | 371 | 369 | 381 | 442 | 409 | 418
6 | COc1ccc(CCC(=O)Nc2nc3ccc(Cl)cc3s2)cc1OC | 463 | 461 | 472 | 466 | 472 | 462 | 454 | 458 | 455
7 | CC(C)[C@H](CO)Nc1nc(Nc2ccc(C(=O)O)c(Cl)c2)c2ncn(C(C)C)c2n1 | 428 | 412 | 462 | 432 | 414 | 425 | 428 | 445 | 462
8 | Nc1ccc([S+](=O)([O-])Nc2ccccn2)cc1 | 438 | 468 | 448 | 467 | 439 | 445 | 470 | 467 | 464
9 | COc1cc(N2CCC(N3CCN(C)CC3)CC2)ccc1Nc1ncnc(Nc2ccccc2[S+](=O)([O-])C(C)C)n1 | 361 | 354 | 400 | 447 | 458 | 451 |  |  | 
10 | CCCCOc1ccc(C(=O)Nc2ccc(F)cc2F)cc1 | 377 | 383 | 385 | 423 | 422 | 408 | 437 | 420 | 433
11 | O=C(NC1CC1)c1cccc(-c2ccc3c(NC(=O)C4CC4)n[nH]c3c2)c1 | 430 | 425 | 422 | 418 | 419 | 426 | 450 | 448 | 451
12 | CN(C)c1nc(N(C)C)nc(N(C)C)n1 | 465 | 453 | 461 | 435 | 436 | 441 | 440 | 454 | 454
13 | COc1ccc2cccc(CCNC(C)=O)c2c1 | 451 | 453 | 452 | 470 | 468 | 460 | 434 | 415 | 440
14 | OC1=C(C=CC=C1)C2=CC=C(C=C2)C3=CSC4=C3C(=C(/C#N)C(=O)N4)/O | 453 | 434 | 457 | 448 | 456 | 453 | 462 | 449 | 453
15 | CC1=C(/C=C/C(C)=C/C=C/C(C)=C/C(=O)Nc2ccc(O)cc2)C(C)(C)CCC1 | 301 | 322 | 274 | 326 | 311 | 276 | 347 | 348 | 341
16 | COC1=CC=C(C=C1)C/2=C/OC3=CC(=CC=C3C2=O)O | 445 | 458 | 430 | 451 | 461 | 456 | 422 | 451 | 437
17 | Cc1nc2c([nH]1)-c1ccccc1N(C(=O)c1ccc(NC(=O)c3ccccc3-c3ccccc3)cc1)CC2 | 451 | 457 | 449 | 466 | 467 | 471 | 470 | 444 | 468
18 | CN(C)CCC=C1C2=C(C=CC=C2)\C=C/C3=C1C=CC=C3 | 459 | 438 | 466 | 449 | 401 | 469 | 418 | 440 | 438
19 | CCOP(=O)(OCC)C(C)NC(=O)N(CCCl)N=O (stereo not drawn) | 470 | 447 | 461 | 431 | 453 | 436 | 441 | 402 | 466
20 | CCCCc1oc2ccc(NS(C)(=O)=O)cc2c1C(=O)c1ccc(OCCCN(CCCC)CCCC)cc1 |  |  |  | 414 | 409 | 413 | 367 | 332 | 361
21 | CC(C)c1ccc2oc3nc(N)c(C(=O)O)cc3c(=O)c2c1 | 466 | 449 | 462 | 467 | 470 | 474 | 469 | 470 | 472
22 | CN(C)c1ccc(C(=O)NCCCCCCC(=O)NO)cc1 | 311 | 314 | 316 | 329 | 330 | 317 | 358 | 343 | 354
23 | CC1(C)O[C@H]2CC(=O)OC[C@]23[C@H]2CC[C@@]4(C)[C@H](c5ccoc5)OC(=O)[C@H]5O[C@]54[C@]2(C)C(=O)C[C@@H]13 | 463 | 444 | 438 | 468 | 446 | 469 | 462 | 465 | 461
24 | CCCn1c(=O)c2[nH]c(-c3cnn(Cc4cccc(C(F)(F)F)c4)c3)nc2n(CC)c1=O | 470 | 467 | 467 | 446 | 388 | 438 | 394 | 443 | 413
25 | CNC(=O)c1c(F)cccc1Nc1nc(Nc2cc3c(cc2OC)CCN3C(=O)CN(C)C)nc2[nH]ccc12 | 269 | 253 | 272 | 446 | 463 | 454 | 384 | 459 | 454

Row | SMILES | AUC of viability dose-response curve (SEM cells; HPLM + 10% dialyzed FBS) | AUC of viability dose-response curve (SEM cells; RPMI 5 mM glucose + 10% FBS) | AUC of viability dose-response curve (SEM cells; [1]) | AUC of viability dose-response curve (P12-Ichikawa; HPLM + 10% dialyzed FBS) | AUC of viability dose-response curve (P12-Ichikawa; RPMI 5 mM glucose + 10% FBS) | AUC of viability dose-response curve (P12-Ichikawa; [1]) | AUC of viability dose-response curve (NOMO1; HPLM + 10% dialyzed FBS) | AUC of viability dose-response curve (NOMO1; RPMI 5 mM glucose + 10% FBS) | AUC of viability dose-response curve (NOMO1; [1])
26 | O=P(O)(O)C(O)(Cc1cccnc1)P(=O)(O)[O][Na] (stereo not drawn) | 411 | 409 | 406 |  |  |  |  |  | 
27 | O=C(Oc1ccc([N+](=O)[O-])cc1)N1CCN(Cc2cccc(Oc3ccccc3)c2)CC1 | 433 | 453 | 468 | 468 | 475 | 457 | 469 | 460 | 451
28 | CCCCCCCCCCCCCCCC(=O)OC[C@@H](NC(=O)C(Cl)Cl)[C@H](O)c1ccc([N+](=O)[O-])cc1 | 464 | 468 | 455 | 470 | 429 | 461 | 450 | 461 | 445
29 | NC/1=N/C(=O)N(/C=C1)[C@H]2CC[C@@H](CO)O2 | 437 | 415 | 385 |  |  |  | 435 | 404 | 422
30 | CNC(=O)c1cc(Oc2ccc(NC(=O)Nc3cc(C(C)(C)C)nn3-c3ccc4ncccc4c3)c(F)c2)ccn1 | 375 | 359 | 335 | 464 | 465 | 469 | 433 | 452 | 450
31 | CO[C@@H]1[C@H](N(C)C(=O)c2ccccc2)C[C@H]2O[C@]1(C)n1c3ccccc3c3c4c(c5c6ccccc6n2c5c31)C(=O)NC4 | 313 | 308 | 305 | 373 | 380 | 386 | 415 | 424 | 412
32 | COc1ccc(-c2c(-c3ccc(O)cc3O)n[nH]c2C)cc1 | 428 | 405 | 431 | 465 | 464 | 468 | 449 | 467 | 466
33 | CCC(CC)[C@H](NC(C)=O)[C@@H]1[C@H](O)[C@@H](C(=O)O)C[C@H]1NC(=N)N | 335 | 394 | 365 |  |  |  | 404 | 407 | 395
34 | CC1=C(C)C2=C(S1)[N]3C(=NN=C3[C@H](CC(=O)OC(C)(C)C)/N=C2/C4=CC=C(Cl)C=C4)C | 249 | 264 | 251 | 311 | 313 | 305 | 292 | 286 | 296
35 | COc1ccc(Cn2ccc3ccc(C(=O)NO)cc32)cc1 | 464 | 460 | 462 |  |  |  | 446 | 461 | 469
36 | CCCn1c(=O)c2[nH]c(C34CC5CC3C[C@@H](C5)C4)nc2n(CCC)c1=O | 477 | 416 | 457 | 462 | 410 | 460 | 454 | 442 | 463
37 | COc1ccc([C@@H]2CNC(=O)C2)cc1OC1CCCC1 | 454 | 458 | 459 | 466 | 456 | 458 | 452 | 467 | 468
38 | CN1C(=O)COc2c(C(=O)NC3CN4CCC3CC4)cc(Cl)cc21 (stereo not drawn) | 457 | 453 | 471 |  |  |  | 448 | 464 | 439
39 | CC1(C)CC(=O)c2c(C(F)(F)F)nn(-c3ccc(C(N)=O)c(NC4CCC(OC(=O)CN)CC4)c3)c2C1 (stereo not drawn) | 288 | 290 | 276 | 346 | 297 | 308 | 292 | 273 | 281
40 | Cc1cnc(Nc2ccc(OCCN3CCCC3)cc2)nc1Nc1cccc([S+](=O)([O-])NC(C)(C)C)c1 | 427 | 458 | 447 | 469 | 471 | 468 | 477 | 470 | 473
41 | N=C(N)c1ccc(OCCCCCOc2ccc(C(=N)N)cc2)cc1 | 457 | 463 | 465 | 467 | 456 | 458 | 441 | 447 | 441
42 | COc1ccc2cc(-c3[nH]c(-c4ccc([S+](C)[O-])cc4)nc3-c3ccncc3)ccc2c1 (stereo not drawn) | 451 | 463 | 460 | 472 | 468 | 464 | 461 | 390 | 435
43 | Cc1ccccc1C(C(=O)NC1CCCCC1)N(C(=O)CNc1ccc(C#N)cc1)c1cccc(F)c1 (stereo not drawn) | 471 | 454 | 470 | 453 | 476 | 467 |  |  | 
44 | c1ccc2c(-c3cnn4cc(-c5ccc(N6CCNCC6)cc5)cnc34)ccnc2c1 | 355 | 379 | 394 |  |  |  |  |  | 
45 | c1cc(OCCN2CCCCC2)cc(-c2n[nH]c3ccc(-c4nc[nH]n4)cc23)c1 | 412 | 441 | 413 |  |  |  | 467 | 463 | 468
46 | C[Se]CCC(N)C(=O)O (stereo not drawn) |  |  |  | 407 | 390 | 388 | 406 | 406 | 394
47 | CC1(C)OC/2=C(\[C@H](NCC3=CC=CC=C3)[C@@H]1O)C(=O)C4=CC=CC=C4C2=O | 417 | 363 | 413 | 424 | 397 | 416 |  |  | 
48 | C=C1C[C@@]2(O)O[C@@]3(C[C@H]2C(C)C)[C@@H](C)CC[C@@H]13 |  |  |  | 469 | 460 | 449 | 466 | 451 | 465
49 | CC1=C2N=C([NH]C2=CC(=C1)N3CCOCC3)\C4=C(NC[C@@H](O)C5=CC=CC(=C5)Cl)\C=C/NC4=O |  |  |  | 469 | 469 | 465 | 385 | 411 | 378
